The source of these data is patent CN117800914A, “一种抗SARS-CoV-2病毒奥密克戎突变种抑制剂” (Second Military Medical University SMMU, priority 2023, dated 2024).

The test system of the first experiment is SARS-CoV-2 mutant strains (SARS-CoV-2突变株). Particulars: treatment of SARS-CoV-2 mutant strains; cited from earlier work.
Take `NC(=O)c1nc(F)c[nH]c1=O` [法维拉韦]: the “clinical performance in treating SARS-CoV-2 mutant strains (in words)” value is recorded as “不尽如人意”.

As to `CCC(CC)COC(=O)[C@H](C)N[P@](=O)(OC[C@H]1O[C@@](C#N)(c2ccc3c(N)ncnn23)[C@H](O)[C@@H]1O)Oc1ccccc1` [瑞德西韦], the “clinical performance in treating SARS-CoV-2 mutant strains (in words)” value was “不尽如人意”.

The test system of the next experiment is SARS-CoV-2 Omicron mutant BA.2 (SARS-CoV-2奥密克戎毒突变种BA.2). The class given is cell-based, SARS-CoV-2 Omicron BA.2. The settings on record: 20 h.
Broadly, the IC50 is the concentration that inhibits the measured activity by half. Lower therefore signals inhibition by little substance. In the case of `CO[C@H]1/C=C/C=C/C=C/C[C@H](OC(=O)[C@@H](C)NC(=O)CCC(C)C)[C@H](C)[C@@H](O)/C(CO)=C\CCc2cc(F)cc(c2)NC(=O)C1` [A6], half-maximal inhibition (IC50) required 450 nM.

`CO[C@H]1/C=C/C=C/C=C/C[C@H](OC(=O)[C@@H](C)NC(=O)CC(C)C)[C@H](C)[C@@H](O)/C(C)=C\CCc2ccc(F)c(c2)NC(=O)C1` [B1] registered an IC50 of 300 nM.

For `CO[C@H]1/C=C/C=C/C=C/C[C@H](O)[C@H](C)[C@@H](OC(=O)[C@@H](C)NC(=O)CC(C)C)/C(C)=C\CCc2ccc(F)c(c2)NC(=O)C1` [B3], it took 1190 nM to reach half-maximal inhibition (IC50).

`CCC(C)C(=O)N[C@H](C)C(=O)O[C@H]1C/C=C/C=C/C=C/[C@H](OC)CC(=O)Nc2cc(ccc2F)CC/C=C(/C)[C@H](O)[C@H]1C` (some centres unmarked) [B5] showed a 50% inhibitory concentration (IC50) of 200 nM.

In turn, `C/C=C(\C)C(=O)N[C@H](C)C(=O)O[C@H]1C/C=C/C=C/C=C/[C@H](OC)CC(=O)Nc2cc(ccc2F)CC/C=C(/C)[C@H](O)[C@H]1C` [B6] registered a 50% inhibitory concentration (IC50) of 413 nM.

The compound `CO[C@H]1/C=C/C=C/C=C/C[C@H](OC(=O)[C@@H](C)NC(=O)CCC(C)C)[C@H](C)[C@@H](O)/C(C)=C\CCc2ccc(F)c(c2)NC(=O)C1` [B8] registered an IC50 of 1100 nM.

Consider `COc1cc2cc(c1)NC(=O)C[C@@H](OC)/C=C/C=C/C=C/C[C@H](O)[C@H](C)[C@@H](OC(=O)[C@@H](C)NC(=O)CC(C)C)/C(C)=C\CC2` [C7], for which the half-inhibitory concentration (IC50) was found to be 825 nM.

In turn, `COc1cc2c(O)c(c1)NC(=O)C[C@@H](OC)/C=C/C=C/C=C/C[C@H](O)[C@H](C)[C@@H](OC(=O)[C@@H](C)NC(=O)CC(C)C)/C(C)=C\CC2` [C8] gave an IC50 of 400 nM.

In turn, `CO[C@H]1/C=C/C=C/C=C/C[C@H](OC(=O)[C@@H](C)NC(=O)CC(C)C)[C@H](C)[C@@H](O)/C(C)=C\CCc2cccc(c2)NC(=O)C1` [D1] registered a half-inhibitory concentration (IC50) of over 5000 nM.
